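96-well plates; 48 h exposure; 5 concentrations. Endpoints by linear interpolation between flanking doses. Not reached: highest tested concentration assigned. TGI: total growth inhibition.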
Experiments:
Assay in all cases: growth of human tumour cells (NCI), 48 h
[1] = system: 786-0 renal
[2] = system: A498 renal
[3] = system: A549 NSCLC
[4] = system: ACHN renal
[5] = system: CCRF-CEM leukemia
[6] = system: COLO 205 colon
[7] = system: DLD-1 colon
[8] = system: DMS 114 small cell lung
[9] = system: EKVX NSCLC
[10] = system: HCC-2998 colon
[11] = system: HCT-116 colon
[12] = system: HCT-15 colon
[13] = system: HL-60(TB) leukemia
[14] = system: HOP-18 NSCLC
[15] = system: HOP-62 NSCLC
[16] = system: HOP-92 NSCLC
[17] = system: HT29 colon
[18] = system: IGROV1 ovarian
[19] = system: KM12 colon
[20] = system: KM20L2 colon
[21] = system: LOX IMVI melanoma
[22] = system: LXFL 529 NSCLC
[23] = system: M14 melanoma
[24] = system: M19-MEL melanoma
[25] = system: MALME-3M melanoma
[26] = system: NCI-H226 lung
[27] = system: NCI-H23 lung
[28] = system: NCI-H460 lung
[29] = system: NCI-H522 lung
[30] = system: OVCAR-3 ovarian
[31] = system: OVCAR-4 ovarian
[32] = system: OVCAR-5 ovarian
[33] = system: OVCAR-8 ovarian
[34] = system: RPMI-8226 leukemia
[35] = system: RXF 393 renal
[36] = system: RXF-631 renal
[37] = system: SF-268 CNS
[38] = system: SF-295 CNS
[39] = system: SF-539 CNS
[40] = system: SK-MEL-2 melanoma
[41] = system: SK-MEL-28 melanoma
[42] = system: SK-MEL-5 melanoma
[43] = system: SK-OV-3 ovarian
[44] = system: SN12C renal
[45] = system: SNB-19 CNS
[46] = system: SNB-75 CNS
[47] = system: SNB-78 CNS
[48] = system: SW-620 colon
[49] = system: TK-10 renal
[50] = system: U251 CNS
[51] = system: UACC-257 melanoma
[52] = system: UACC-62 melanoma
[53] = system: UO-31 renal
[54] = system: DMS 273 small cell lung
[55] = system: K-562 leukemia
[56] = system: MOLT-4 leukemia
[57] = system: SR leukemia
[58] = system: XF 498 CNS

## CCCCCCCCCCCCCc1nn[nH]n1
[1]
  TGI: 31.5 µM
[2]
  TGI: 32.2 µM
[3]
  TGI: 40.7 µM
[4]
  TGI: 42.2 µM
[5]
  TGI: 41.7 µM
[6]
  TGI: 36.6 µM
[7]
  TGI: 31.8 µM
[8]
  TGI: 38.4 µM
[9]
  TGI: 52 µM
[10]
  TGI: 33.7 µM
[11]
  TGI: 31.7 µM
[12]
  TGI: 34.6 µM
[13]
  TGI: 39.9 µM
[14]
  TGI: 28.2 µM
[15]
  TGI: 32.8 µM
[16]
  TGI: 29.3 µM
[17]
  TGI: 33 µM
[18]
  TGI: 41.1 µM
[19]
  TGI: 32.9 µM
[20]
  TGI: 37.4 µM
[21]
  TGI: 35.4 µM
[22]
  TGI: 31.2 µM
[23]
  TGI: 31.5 µM
[24]
  TGI: 36.8 µM
[25]
  TGI: 33.5 µM
[26]
  TGI: 45.5 µM
[27]
  TGI: 44.6 µM
[28]
  TGI: 40.6 µM
[29]
  TGI: 42.6 µM
[30]
  TGI: 32.6 µM
[31]
  TGI: 35.4 µM
[32]
  TGI: 33 µM
[33]
  TGI: 81.1 µM
[34]
  TGI: 64.2 µM
[35]
  TGI: 43.4 µM
[36]
  TGI: 29.3 µM
[37]
  TGI: 40.5 µM
[38]
  TGI: 34.6 µM
[39]
  TGI: 32.2 µM
[40]
  TGI: 33.1 µM
[41]
  TGI: 31.7 µM
[42]
  TGI: 32.5 µM
[43]
  TGI: 47.3 µM
[44]
  TGI: 35.9 µM
[45]
  TGI: 33 µM
[46]
  TGI: 36 µM
[47]
  TGI: 43.6 µM
[48]
  TGI: 41.4 µM
[49]
  TGI: 43.7 µM
[50]
  TGI: 32.8 µM
[51]
  TGI: 35.9 µM
[52]
  TGI: 34.6 µM
[53]
  TGI: 29.5 µM

## C/C(CC(=O)N(C(C)C)C(C)C)=N\NC(=O)c1ccncc1
[1]
  TGI: > 100 µM
[2]
  TGI: > 100 µM
[3]
  TGI: > 100 µM
[4]
  TGI: > 100 µM
[5]
  TGI: > 100 µM
[6]
  TGI: > 100 µM
[7]
  TGI: > 100 µM
[54]
  TGI: > 100 µM
[9]
  TGI: > 100 µM
[10]
  TGI: > 100 µM
[11]
  TGI: > 100 µM
[12]
  TGI: > 100 µM
[13]
  TGI: > 100 µM
[14]
  TGI: > 100 µM
[16]
  TGI: > 100 µM
[17]
  TGI: > 100 µM
[18]
  TGI: > 100 µM
[55]
  TGI: > 100 µM
[20]
  TGI: > 100 µM
[21]
  TGI: > 100 µM
[22]
  TGI: > 100 µM
[23]
  TGI: > 100 µM
[24]
  TGI: > 100 µM
[25]
  TGI: > 100 µM
[56]
  TGI: > 100 µM
[26]
  TGI: > 100 µM
[27]
  TGI: > 100 µM
[29]
  TGI: > 100 µM
[30]
  TGI: > 100 µM
[31]
  TGI: > 100 µM
[33]
  TGI: > 100 µM
[34]
  TGI: > 100 µM
[35]
  TGI: > 100 µM
[36]
  TGI: > 100 µM
[37]
  TGI: > 100 µM
[38]
  TGI: > 100 µM
[39]
  TGI: > 100 µM
[41]
  TGI: > 100 µM
[42]
  TGI: > 100 µM
[43]
  TGI: > 100 µM
[44]
  TGI: > 100 µM
[45]
  TGI: > 100 µM
[46]
  TGI: > 100 µM
[47]
  TGI: > 100 µM
[57]
  TGI: > 100 µM
[48]
  TGI: > 100 µM
[50]
  TGI: > 100 µM
[51]
  TGI: > 100 µM
[52]
  TGI: > 100 µM
[53]
  TGI: > 100 µM
[58]
  TGI: > 100 µM
